Reference: patent EP1902732A1, “PROPHYLACTIC/THERAPEUTIC AGENT FOR HER2-EXPRESSING CANCER” (Takeda Pharmaceutical Company Limited, priority 2005, dated 2006)

Tests used:
Format in all cases: cell-based, human
[1] = test system: phosphorylated S6 kinase (S6K); assay: Western blotting of phosphorylated S6K in BT-474 cells; conditions: Example 7, two hours, antimycin 1-0.01 nmol/L, oligomycin 100-1 ng/mL, 2,4-dinitrophenol 300-3 µmol/L
Description: Human HER2-expressing human breast cancer cell line BT-474 (purchased from American Tissue Culture Collection (ATCC)) was seeded into a 24-multiwell plate (BT-474: 1.2 x 10^5 cells/well) and cultured overnight in a carbon dioxide gas incubator (5% CO2, 37°C). As an energy metabolism inhibitor having a mechanism that differed from that of rotenone, mitochondrial respiratory chain complex III-inhibiting compound antimycin (Wako Pure Chemical Industries) was added to final concentrations of 1, 0.3, 0.1, 0.03 and 0.01 nmol/L while continuing culture. Using another plate, mitochondrial respiratory chain complex V-inhibiting compound oligomycin (Wako Pure Chemical Industries) was added to final concentrations of 100, 30, 10, 3 and 1 ng/mL while continuing culture. In addition, 2,4-dinitrophenol was added to 300, 100, 30, 10 and 3 µmol/L while continuing culture. Two hours after the addition of the agent, the broth was removed and the cells were lysed with an SDS sample buffer (200 µL). Then, this cell lysate was used to perform western blotting analysis. Specifically, this cell lysate (8 µL) was separated by an SDS-PAGE method (gel concentration: 7.5-15%) (Analytical Biochemistry, No. 166, pp. 368-379, 1987) and transferred onto a nitrocellulose membrane (BioRad). Then, an antibody specific to phosphorylated HER2 (Cell signaling technology, Code# 2244), pACC antibody specific to phosphorylated acetyl-CoA carboxylase (ACC) (Cell signaling technology, Code# 3661) and anti-phosphorylated S6K antibody specific to phosphorylated S6 kinase (S6K) (Cell signaling technology, Code# 9209) were used to detect the antibody by chemiluminescent detection with an ECL system (Amersham) to quantify an amount of phosphorylated protein with LAS-1000 plus image analysis device (FUJIFILM).

Akt = assay: Western blotting of phosphorylated Akt in BT-474 cells; conditions: Example 2, 4-fold dilution series from 1 µmol/L in 5 steps, 2 hours
Description: (§1) Human HER2-expressing human breast cancer cell line BT-474 (purchased from American Tissue Culture Collection (ATCC)) was seeded into a 24-multiwell plate (BT-474: 1.2 x 10^5 cells/well), and cultured overnight in a carbon dioxide gas incubator (5% CO2, 37°C). A 4-fold dilution series of a mitochondrial respiratory chain complex inhibiting compound (complex I: rotenone, complex III: antimycin, complex V: oligomycin: Wako Pure Chemical Industries) was added starting from a final concentration of 1 µmol/L in 5 steps while continuing culture. After 2 hours, the broth was removed, and the cells were lysed with an SDS sample buffer (200 µL). Western blotting analysis was performed as follows. Specifically, this cell lysate (8 µL) was separated by an SDS-PAGE method (gel concentration: 7.5-15%) (Analytical Biochemistry, No. 166, pp. 368-379, 1987), and transferred to a nitrocellulose membrane (BioRad). Then, an antibody specific to phosphorylated HER2 (Cell signaling technology, Code# 2244), an anti-phosphorylated Akt antibody specific to downstream antiapoptotic signal transducing molecule Akt (Cell signaling technology, Code# 9271) and an anti-phosphorylated MAPK antibody specific to downstream proliferation signal transducing molecule MAPK (Cell signaling technology, Code# 9101) were used to detect the antibody with an ECL system (Amersham) to quantify the amount of phosphorylated protein by an image analysis.
(§2) Human HER2-expressing human cancer cell line BT-474 (purchased from ATCC) was seeded into a 24-multiwell plate (1.2 x 10^5 cells/well) and cultured overnight in a carbon dioxide gas incubator (20% O2, 5% CO2, 37°C). A 3-fold dilution series of metformin that activates AMPK (The Journal of Biological Chemistry, Vol. 279, No. 42, pp. 43940-43951, 2004) was added starting from a final concentration of 15 mmol/L in 5 steps while continuing culture. Two hours later, the broth was removed and the cells were lysed with an SDS sample buffer (200 µL). This cell lysate (8 µL) was separated by an SDS-PAGE method (gel concentration: 7.5-15%) (Analytical Biochemistry, No. 166, pp. 368-379, 1987). Then, western blotting analysis was performed in the same manner as in Example 1 to quantify phosphorylated HER2, phosphorylated Akt and phosphorylated MAPK.

MAPK = assay: Western blotting of phosphorylated MAPK in BT-474 cells; conditions: Example 2, 4-fold dilution series from 1 µmol/L in 5 steps, 2 hours
Description: as §1, §2

| Molecule | phosphorylation of S6K [1] | Akt phosphorylation (Akt) | MAPK phosphorylation (MAPK) |
| --- | --- | --- | --- |
| O=[N+]([O-])c1ccc(O)c([N+](=O)[O-])c1 [2,4-dinitrophenol] | suppressed |  |  |
| antimycin | suppressed | suppressions of Akt and MAPK phosphorylations were also confirmed | suppressions of Akt and MAPK phosphorylations were also confirmed |
